Consider two compounds from paper PMC4137987 (Chemical Research in Toxicology, 2014).

A short description of data set [1]: Serum concentration and clearance of PCB3 metabolites after inhalation. In kind it is in vivo, female Sprague–Dawley (SD) rats. As to conditions: 0 h postexposure; PCB3 26 μg/rat; mean ± SD, n = 3.
Data set [2] can be described thus: Excretion in urine and feces over 24 h after inhalation of PCB3. In kind it is in vivo, female Sprague–Dawley (SD) rats. The conditions noted are these: 0–24 h; PCB3 35 μg/rat; n = 3.
Data set [3] can be described thus: Serum chemistry and serum free thyroxine. It is filed as in vivo, female Sprague–Dawley (SD) rats. As to conditions: rats exposed to PCB3 for 2 h.
The test system of data set [4] is urinary 8-oxo-dG. Put plainly: Urinary 8-oxo-dG analysis. It is filed as in vivo, female Sprague–Dawley (SD) rats. The conditions noted are these: exposed rats; composite 24 h urine; not significant vs control (p = 0.23).
Data set [5] concerns granulosa and theca cells derived from porcine ovary. As to conditions: cited from earlier work.

Turning to `Oc1ccc(-c2ccc(Cl)cc2)cc1` [4′OH-PCB3], the Serum concentration in data set [1] turned out to be 7 ± 1 ng/mL. Also, in data set [2], the “Metabolite excreted in urine, percentage of dose” value is 1.0 ± 0.5%.

On to `Clc1ccc(-c2ccccc2)cc1` [PCB3, 4-chlorobiphenyl], for which, in data set [2], the “Unchanged PCB3 in feces, percentage of dose” value was found to be 4 ± 2% and the “Unchanged PCB3 in urine, percentage of dose” value stood at 2 ± 1%. Moreover, the “Serum chemistry parameters (renal function, serum protein, T4, electrolyte balance, pancreas function, liver function, lipid metabolism)” value in data set [3] is “within normal ranges”. Besides, in data set [4], the “8-oxo-dG level in 24 h urine” value is given as 160 ± 35 pg/mg creatinine. The “Estradiol level in the medium” value in data set [5] is “significant increase”.
